Data as given in patent US20110230481A2, “DERIVATIVES OF TETRABROMOBENZIMIDAZOLE, A PROCESS FOR THE PREPARATION THEREOF, A PHARMACEUTICAL COMPOSITION COMPRISING THE SAME, A METHOD OF USING THE SAME, A METHOD FOR MODULATING OR REGULATING SERINE/THREONINE KINASES, AND SERINE/THREONINE KINASES MODULATING AGENT” (SELVITA S.A., priority 2009, published 2011).

What was measured:
Assay in all cases: KINOMEscan Max
Type in all cases: binding
[1] = molecular target: MAST1 (Homo sapiens, UniProt Q9Y2H9)
Summary of the method: (§1)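 Competition binding assay: test compound competes with an immobilized, active-site directed ligand for DNA-tagged kinase. Kinase captured on the ligand is quantified by qPCR of the DNA tag.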

[2] = molecular target: T1, PKN2 (Homo sapiens, UniProt Q16513)
T1 construct: purchased Ambit (KINOMEscan Max service)
Summary of the method: as §1

[3] = molecular target: AURKA (Homo sapiens, UniProt O14965)
Summary of the method: as §1

[4] = molecular target: TRKC (Homo sapiens, UniProt Q16288)
Summary of the method: as §1

[5] = molecular target: DRAK1 (Homo sapiens, UniProt Q9UEE5)
Summary of the method: as §1

[6] = molecular target: T2, CLK2 (Homo sapiens, UniProt P49760)
T2 construct: DNA tag (qPCR read-out)
Summary of the method: as §1

[7] = molecular target: T3, ACVRL1 (Homo sapiens, UniProt P37023)
T3 construct: DNA tag (qPCR label); purchased Ambit Kinomescan (contract screening)
Summary of the method: as §1

[8] = molecular target: T4, GRK4 (Homo sapiens, UniProt P32298)
T4 construct: purchased Ambit Kinomescan (contract panel, KINOMEscan Max)
Summary of the method: as §1

[9] = molecular target: PAK3 (Homo sapiens, UniProt O75914)
Summary of the method: as §1

[10] = molecular target: T5, SYK (Homo sapiens, UniProt P43405); settings: 1 μM
T5 construct: DNA tag (qPCR read-out)
Summary of the method: as §1

[11] = molecular target: T6, GCN2(Kin.Dom.S808G) (Homo sapiens, UniProt Q9P2K8, S808G)
T6 construct: GCN2(Kin.Dom.S808G)
T6 sequence (Q9P2K8 590-1001 S808G limits assumed): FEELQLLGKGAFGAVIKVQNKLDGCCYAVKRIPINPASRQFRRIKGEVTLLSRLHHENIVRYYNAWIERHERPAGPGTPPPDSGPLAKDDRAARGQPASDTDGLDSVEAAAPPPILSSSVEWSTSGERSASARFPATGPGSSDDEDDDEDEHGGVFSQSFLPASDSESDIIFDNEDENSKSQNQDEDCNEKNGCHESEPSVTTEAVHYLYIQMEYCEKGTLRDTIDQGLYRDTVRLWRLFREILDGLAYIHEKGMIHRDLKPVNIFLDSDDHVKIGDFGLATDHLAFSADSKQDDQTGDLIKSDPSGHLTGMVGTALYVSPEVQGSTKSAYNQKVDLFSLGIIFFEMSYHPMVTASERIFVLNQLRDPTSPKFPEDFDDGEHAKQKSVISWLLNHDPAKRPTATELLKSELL
Summary of the method: as §1

[12] = molecular target: T7, RAF1 (Homo sapiens, UniProt P04049)
T7 construct: DNA tag (qPCR read-out)
Summary of the method: as §1

[13] = molecular target: T8, RPS6KA5(Kin.Dom.1-N-terminal) (Homo sapiens, UniProt O75582)
T8 construct: RPS6KA5(Kin.Dom.1-N-terminal); DNA tag (qPCR read-out)
Summary of the method: as §1

[14] = molecular target: T9, IKK-alpha (Homo sapiens, UniProt O15111)
T9 construct: DNA tag (qPCR read-out); purchased Ambit Kinomescan
Summary of the method: as §1

[15] = molecular target: T10, EPHB3 (Homo sapiens, UniProt P54753)
T10 construct: DNA tag (qPCR read-out)
T10 sequence (P54753 34-998): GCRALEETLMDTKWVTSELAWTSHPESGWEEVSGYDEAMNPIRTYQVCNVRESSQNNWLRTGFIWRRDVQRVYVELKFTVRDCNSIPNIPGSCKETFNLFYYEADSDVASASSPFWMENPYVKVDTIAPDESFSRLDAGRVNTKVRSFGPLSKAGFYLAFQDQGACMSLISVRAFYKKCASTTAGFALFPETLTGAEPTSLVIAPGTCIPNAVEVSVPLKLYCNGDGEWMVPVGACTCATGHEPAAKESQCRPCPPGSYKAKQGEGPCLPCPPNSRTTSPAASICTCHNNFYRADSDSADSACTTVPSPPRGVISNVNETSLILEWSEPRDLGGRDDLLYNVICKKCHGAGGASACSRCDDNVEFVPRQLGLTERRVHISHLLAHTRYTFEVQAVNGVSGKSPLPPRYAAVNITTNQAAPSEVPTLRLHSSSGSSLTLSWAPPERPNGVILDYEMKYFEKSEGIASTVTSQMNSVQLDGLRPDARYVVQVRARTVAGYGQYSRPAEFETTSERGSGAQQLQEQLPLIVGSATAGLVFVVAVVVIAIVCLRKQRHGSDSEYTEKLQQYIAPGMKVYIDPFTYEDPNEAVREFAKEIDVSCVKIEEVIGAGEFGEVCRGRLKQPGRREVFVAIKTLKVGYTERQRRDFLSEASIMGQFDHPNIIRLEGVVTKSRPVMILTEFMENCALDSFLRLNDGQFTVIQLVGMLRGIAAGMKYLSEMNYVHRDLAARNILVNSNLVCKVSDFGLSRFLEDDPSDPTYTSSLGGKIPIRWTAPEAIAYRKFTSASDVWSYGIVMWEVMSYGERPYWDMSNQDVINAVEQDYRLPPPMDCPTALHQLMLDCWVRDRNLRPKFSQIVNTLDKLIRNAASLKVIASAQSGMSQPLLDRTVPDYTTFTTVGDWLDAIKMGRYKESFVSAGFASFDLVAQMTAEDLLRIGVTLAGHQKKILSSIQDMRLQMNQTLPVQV
Summary of the method: as §1

[16] = molecular target: T11, JAK3(JH1domain-catalytic) (Homo sapiens, UniProt P52333)
T11 construct: JAK3(JH1domain-catalytic); purchased Ambit Kinomescan (contract panel)
Summary of the method: as §1

[17] = molecular target: T12, NEK11 (Homo sapiens, UniProt Q8NG66)
T12 construct: DNA tag (qPCR read-out)
Summary of the method: as §1

[18] = molecular target: T13, CAMK1 (Homo sapiens, UniProt Q14012)
T13 construct: purchased Ambit Kinomescan (contract screening)
T13 sequence (Q14012 whole entry): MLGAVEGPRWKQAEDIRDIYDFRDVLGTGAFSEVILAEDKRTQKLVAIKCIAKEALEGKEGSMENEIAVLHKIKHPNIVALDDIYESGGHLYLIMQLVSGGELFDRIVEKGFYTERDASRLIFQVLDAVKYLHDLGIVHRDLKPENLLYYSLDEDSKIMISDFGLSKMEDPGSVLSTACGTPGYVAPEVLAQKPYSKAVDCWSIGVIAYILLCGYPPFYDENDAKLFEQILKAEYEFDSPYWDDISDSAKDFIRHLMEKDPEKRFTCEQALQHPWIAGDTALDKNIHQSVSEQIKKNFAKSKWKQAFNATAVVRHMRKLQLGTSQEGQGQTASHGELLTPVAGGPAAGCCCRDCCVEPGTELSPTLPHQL
Summary of the method: as §1

[19] = molecular target: T14, EGFR(G719S) (Homo sapiens, UniProt P00533, G719S); settings: 1 μM
T14 construct: purchased Ambit (KINOMEscan Max panel service)
Summary of the method: as §1

[20] = molecular target: T15, FLT3(N841I) (Homo sapiens, UniProt P36888, N841I)
T15 construct: purchased Ambit (KINOMEscan Max service)
Summary of the method: as §1

[21] = molecular target: MEK5 (Homo sapiens, UniProt Q13163)
Summary of the method: as §1

[22] = molecular target: T16, ARK5 (Homo sapiens, UniProt O60285); settings: 1 μM
T16 construct: DNA tag (qPCR label); purchased Ambit Kinomescan (contract screening)
Summary of the method: as §1

[23] = molecular target: T17, CSNK2A1 (Homo sapiens, UniProt P68400)
T17 construct: purchased Ambit (KINOMEscan Max panel service)
Summary of the method: as §1

[24] = molecular target: T18, CAMK1D (Homo sapiens, UniProt Q8IU85)
T18 construct: DNA tag (qPCR label); purchased Ambit Kinomescan (contract screening)
T18 sequence (Q8IU85 whole entry): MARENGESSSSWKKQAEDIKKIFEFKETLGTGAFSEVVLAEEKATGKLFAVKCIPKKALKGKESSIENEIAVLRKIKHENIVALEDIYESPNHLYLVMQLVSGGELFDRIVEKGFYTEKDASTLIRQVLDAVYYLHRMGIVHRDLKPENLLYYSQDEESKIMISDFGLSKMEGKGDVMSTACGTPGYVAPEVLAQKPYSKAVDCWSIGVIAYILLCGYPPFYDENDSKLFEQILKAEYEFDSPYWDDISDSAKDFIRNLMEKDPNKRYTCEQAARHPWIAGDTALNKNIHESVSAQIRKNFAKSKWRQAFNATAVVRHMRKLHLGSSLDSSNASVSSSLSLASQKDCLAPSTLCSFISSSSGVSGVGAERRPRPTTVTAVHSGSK
Summary of the method: as §1

[25] = molecular target: T19, DYRK2 (Homo sapiens, UniProt Q92630)
T19 construct: DNA tag (qPCR read-out); purchased Ambit Kinomescan
Summary of the method: as §1

[26] = molecular target: T20, CDC2L5 (Homo sapiens, UniProt Q14004); settings: 1 μM
T20 construct: DNA tag (qPCR read-out); purchased Ambit Kinomescan
T20 sequence (Q14004 whole entry): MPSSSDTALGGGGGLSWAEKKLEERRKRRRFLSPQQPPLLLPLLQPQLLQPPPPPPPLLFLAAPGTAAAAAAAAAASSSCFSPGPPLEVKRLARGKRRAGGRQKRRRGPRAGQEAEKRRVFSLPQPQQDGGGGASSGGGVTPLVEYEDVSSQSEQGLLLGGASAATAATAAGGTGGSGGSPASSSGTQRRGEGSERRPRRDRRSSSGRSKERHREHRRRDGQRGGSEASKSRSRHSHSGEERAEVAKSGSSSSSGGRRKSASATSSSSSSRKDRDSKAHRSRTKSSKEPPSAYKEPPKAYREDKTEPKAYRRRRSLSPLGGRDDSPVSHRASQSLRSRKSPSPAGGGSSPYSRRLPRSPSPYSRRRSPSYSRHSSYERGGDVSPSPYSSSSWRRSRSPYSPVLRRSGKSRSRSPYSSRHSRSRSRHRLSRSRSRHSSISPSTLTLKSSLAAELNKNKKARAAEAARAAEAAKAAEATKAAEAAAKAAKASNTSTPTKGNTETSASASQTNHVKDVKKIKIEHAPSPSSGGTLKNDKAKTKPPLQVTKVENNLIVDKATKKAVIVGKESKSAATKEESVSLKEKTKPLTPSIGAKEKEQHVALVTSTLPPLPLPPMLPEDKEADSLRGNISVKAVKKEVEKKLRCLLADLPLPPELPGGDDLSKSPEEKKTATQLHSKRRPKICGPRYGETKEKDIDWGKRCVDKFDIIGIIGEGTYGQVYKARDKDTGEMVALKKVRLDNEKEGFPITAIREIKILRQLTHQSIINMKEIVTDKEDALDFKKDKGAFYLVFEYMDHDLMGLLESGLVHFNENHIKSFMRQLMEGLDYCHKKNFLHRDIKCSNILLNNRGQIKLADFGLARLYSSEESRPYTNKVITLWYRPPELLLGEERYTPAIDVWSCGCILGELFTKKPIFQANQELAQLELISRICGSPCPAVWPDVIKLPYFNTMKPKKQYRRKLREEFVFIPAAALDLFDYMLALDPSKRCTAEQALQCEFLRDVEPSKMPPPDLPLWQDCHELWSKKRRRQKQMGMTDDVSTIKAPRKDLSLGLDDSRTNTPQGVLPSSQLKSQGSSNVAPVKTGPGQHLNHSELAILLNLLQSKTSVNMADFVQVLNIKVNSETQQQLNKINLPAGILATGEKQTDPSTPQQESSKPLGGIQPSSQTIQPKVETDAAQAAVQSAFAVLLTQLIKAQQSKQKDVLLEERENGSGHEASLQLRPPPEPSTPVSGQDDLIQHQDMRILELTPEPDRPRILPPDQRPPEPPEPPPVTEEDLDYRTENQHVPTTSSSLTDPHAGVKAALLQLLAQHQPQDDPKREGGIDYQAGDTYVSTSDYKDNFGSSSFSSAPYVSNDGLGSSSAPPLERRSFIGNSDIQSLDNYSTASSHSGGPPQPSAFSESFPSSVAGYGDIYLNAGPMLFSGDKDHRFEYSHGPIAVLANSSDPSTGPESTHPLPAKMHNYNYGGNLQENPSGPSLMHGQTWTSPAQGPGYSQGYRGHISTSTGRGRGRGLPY
Summary of the method: as §1

[27] = molecular target: T21, MET(M1250T) (Homo sapiens, UniProt P08581, M1250T); settings: 1 μM
T21 construct: DNA tag (qPCR read-out)
T21 sequence (P08581 25-1390 M1250T): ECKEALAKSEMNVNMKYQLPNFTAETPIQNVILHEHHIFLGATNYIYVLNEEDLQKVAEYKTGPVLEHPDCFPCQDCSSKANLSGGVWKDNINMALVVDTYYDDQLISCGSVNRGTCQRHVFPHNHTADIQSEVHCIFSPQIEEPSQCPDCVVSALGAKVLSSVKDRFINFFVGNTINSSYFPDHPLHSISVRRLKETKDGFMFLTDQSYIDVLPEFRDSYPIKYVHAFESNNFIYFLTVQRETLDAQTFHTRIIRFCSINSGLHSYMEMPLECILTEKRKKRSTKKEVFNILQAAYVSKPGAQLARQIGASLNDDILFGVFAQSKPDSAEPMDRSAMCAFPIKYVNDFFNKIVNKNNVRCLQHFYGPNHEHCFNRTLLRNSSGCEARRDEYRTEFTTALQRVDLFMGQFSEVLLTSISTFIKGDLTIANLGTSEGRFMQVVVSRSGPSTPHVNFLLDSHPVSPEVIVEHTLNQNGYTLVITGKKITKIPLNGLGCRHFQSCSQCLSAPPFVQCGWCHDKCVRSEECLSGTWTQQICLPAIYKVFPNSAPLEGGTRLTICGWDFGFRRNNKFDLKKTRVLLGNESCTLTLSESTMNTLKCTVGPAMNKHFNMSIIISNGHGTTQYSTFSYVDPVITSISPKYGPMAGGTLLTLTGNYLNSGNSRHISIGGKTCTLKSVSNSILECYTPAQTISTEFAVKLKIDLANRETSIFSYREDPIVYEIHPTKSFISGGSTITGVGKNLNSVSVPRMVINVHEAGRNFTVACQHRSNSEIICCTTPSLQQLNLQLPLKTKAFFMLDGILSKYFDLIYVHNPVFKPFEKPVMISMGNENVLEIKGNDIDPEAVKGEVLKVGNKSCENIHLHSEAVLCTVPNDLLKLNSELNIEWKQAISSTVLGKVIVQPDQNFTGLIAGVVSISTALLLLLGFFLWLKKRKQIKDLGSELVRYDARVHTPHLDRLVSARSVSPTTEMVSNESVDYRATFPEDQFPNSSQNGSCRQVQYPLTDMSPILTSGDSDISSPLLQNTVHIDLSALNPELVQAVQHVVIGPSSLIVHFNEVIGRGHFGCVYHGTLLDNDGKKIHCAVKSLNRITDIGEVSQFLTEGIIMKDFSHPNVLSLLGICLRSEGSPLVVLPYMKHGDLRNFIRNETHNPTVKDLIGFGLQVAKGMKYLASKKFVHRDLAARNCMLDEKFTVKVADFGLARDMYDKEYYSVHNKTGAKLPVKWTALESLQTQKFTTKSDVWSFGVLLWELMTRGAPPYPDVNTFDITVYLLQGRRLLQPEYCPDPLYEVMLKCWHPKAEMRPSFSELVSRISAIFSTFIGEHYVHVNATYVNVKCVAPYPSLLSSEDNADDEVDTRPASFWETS
Summary of the method: as §1

[28] = molecular target: T22, FLT3(K663Q) (Homo sapiens, UniProt P36888, K663Q)
T22 construct: purchased Ambit Kinomescan (contract screening)
Summary of the method: as §1

[29] = molecular target: TIE2 (Homo sapiens, UniProt Q02763)
Summary of the method: as §1

[30] = molecular target: T23, CDC2L1 (Homo sapiens, UniProt P21127)
T23 construct: DNA tag (qPCR label); purchased Ambit Kinomescan (contract screening)
Summary of the method: as §1

[31] = molecular target: FGFR2 (Homo sapiens, UniProt P21802)
Summary of the method: as §1

[32] = molecular target: T24, VEGFR2 (Homo sapiens, UniProt P35968)
T24 construct: purchased Ambit Kinomescan (contract screening)
Summary of the method: as §1

[33] = molecular target: T25, HCK (Homo sapiens, UniProt P08631)
T25 construct: purchased Ambit Kinomescan (contract screening)
Summary of the method: as §1

Question: Which remaining binding at 1 µM [1] does the source give for `NCCCNc1nc2c(Br)c(Br)c(Br)c(Br)c2[nH]1` [Compound 11, N-(3-aminopropyl)-4,5,6,7-tetrabromo-1H-benzo[d]imidazol-2-amine] here?
Answer: 95%

Question: And the remaining binding at 1 µM [2]?
Answer: 80%

Question: And the remaining binding at 1 µM [3]?
Answer: 96%

Question: What about the remaining binding at 1 µM [4] of the same compound?
Answer: 94%

Question: And the remaining binding at 1 µM [5]?
Answer: 75%

Question: And the remaining binding at 1 µM [6]?
Answer: 31%

Question: What about the remaining binding at 1 µM [7] of the same compound?
Answer: 100%

Question: And the remaining binding at 1 µM [8]?
Answer: 100%

Question: And the remaining binding at 1 µM [9]?
Answer: 91%

Question: What about the “% binding” value [10] of the same compound?
Answer: 100%

Question: And the remaining binding at 1 µM [11]?
Answer: 95%

Question: What about the remaining binding at 1 µM [12] of the same compound?
Answer: 86%

Question: And the remaining binding at 1 µM [13]?
Answer: 100%

Question: What about the remaining binding at 1 µM [14] of the same compound?
Answer: 24%

Question: What about the remaining binding at 1 µM [15] of the same compound?
Answer: 91%

Question: What about the remaining binding at 1 µM [16] of the same compound?
Answer: 100%

Question: What about the remaining binding at 1 µM [17] of the same compound?
Answer: 89%

Question: And the remaining binding at 1 µM [18]?
Answer: 98%

Question: And the “% binding” value [19]?
Answer: 100%

Question: What about the remaining binding at 1 µM [20] of the same compound?
Answer: 81%

Question: And the remaining binding at 1 µM [21]?
Answer: 73%

Question: What about the “% binding” value [22] of the same compound?
Answer: 100%

Question: And the remaining binding at 1 µM [23]?
Answer: 100%

Question: What about the remaining binding at 1 µM [24] of the same compound?
Answer: 100%

Question: And the remaining binding at 1 µM [25]?
Answer: 4.5%

Question: What about the “% binding” value [26] of the same compound?
Answer: 24%

Question: What about the “% binding” value [27] of the same compound?
Answer: 56%

Question: What about the remaining binding at 1 µM [28] of the same compound?
Answer: 97%

Question: What about the remaining binding at 1 µM [29] of the same compound?
Answer: 91%

Question: What about the remaining binding at 1 µM [30] of the same compound?
Answer: 100%

Question: What about the remaining binding at 1 µM [31] of the same compound?
Answer: 77%

Question: What about the remaining binding at 1 µM [32] of the same compound?
Answer: 96%

Question: What about the remaining binding at 1 µM [33] of the same compound?
Answer: 98%
